Test results as given in patent publication US20240116985A1, “STAPLED PEPTIDES AND METHODS THEREOF” (priority 2020, published 2024).

What follows are molecules tested against T1, full-length beta-Catenin (Uniprot ID P35222) (Homo sapiens, UniProt P35222) (assay: Fluorescence polarization IC50 (beta-catenin / 5FAM-TCF4 10-53 competition)). Conditions: fluorescence polarization; read-out: beta-Catenin FP IC50.
T1 construct: 10 nM full-length beta-Catenin (Uniprot ID P35222)
T1 sequence (P35222 1-781): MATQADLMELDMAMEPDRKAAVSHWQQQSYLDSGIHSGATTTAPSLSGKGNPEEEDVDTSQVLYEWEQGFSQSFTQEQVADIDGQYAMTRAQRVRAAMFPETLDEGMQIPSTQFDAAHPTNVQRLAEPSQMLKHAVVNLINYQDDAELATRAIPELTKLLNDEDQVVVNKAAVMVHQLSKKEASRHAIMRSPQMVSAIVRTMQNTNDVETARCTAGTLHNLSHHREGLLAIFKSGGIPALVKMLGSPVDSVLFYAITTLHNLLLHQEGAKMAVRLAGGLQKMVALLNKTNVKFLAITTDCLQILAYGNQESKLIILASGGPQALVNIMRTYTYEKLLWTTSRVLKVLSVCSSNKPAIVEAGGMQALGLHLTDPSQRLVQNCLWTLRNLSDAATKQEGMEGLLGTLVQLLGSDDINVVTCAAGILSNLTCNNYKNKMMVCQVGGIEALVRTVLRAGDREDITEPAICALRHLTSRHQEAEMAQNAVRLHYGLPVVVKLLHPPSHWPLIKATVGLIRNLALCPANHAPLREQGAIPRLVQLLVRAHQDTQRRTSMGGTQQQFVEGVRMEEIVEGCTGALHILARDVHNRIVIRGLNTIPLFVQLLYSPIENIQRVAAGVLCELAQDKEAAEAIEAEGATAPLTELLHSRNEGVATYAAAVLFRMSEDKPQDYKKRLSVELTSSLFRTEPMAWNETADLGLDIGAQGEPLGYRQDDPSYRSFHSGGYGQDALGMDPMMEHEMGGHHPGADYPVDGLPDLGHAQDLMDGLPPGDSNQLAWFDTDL
Assay type: binding
Molecule CCC(C)N(CC(=O)O)C[C@@H]1NC(=O)[C@H](CC(=O)O)NC(=O)C2(CCCC=CCCCCCC[C@@](C)(C(=O)N[C@@H](Cc3ccsc3)C(=O)N[C@@H](Cc3csc4ccccc34)C(=O)N[C@@H](CCC(N)=O)C(N)=O)NC(=O)[C@H](CC(N)=O)NC(=O)[C@H](Cc3ccccc3)NC(=O)[C@H](C)NC(=O)[C@H](C)NC1=O)CCCC=CC[C@]1(CCCN1C(C)=O)C(=O)N[C@@H](CC(=O)O)C(=O)N[C@@H](CC(C)(C)C)C(=O)N2 (stereo partly drawn) [I-1626, Ac-PL3-Asp-Npg-B5-Asp-[sBu]GA-Ala-Ala-Phe-Asn-S8-3Thi-BztA-Gln-NH2] has an IC50 of 721 nM. CC(=O)N1CCC[C@]12CC=CCCCC1(CCCC=CCCCOC(=O)N3CC[C@@](C(=O)N[C@@H](Cc4ccsc4)C(=O)N[C@@H](Cc4csc5ccccc45)C(=O)N[C@@H](CCC(N)=O)C(N)=O)(C3)NC(=O)[C@H](CC(N)=O)NC(=O)[C@H](Cc3ccccc3)NC(=O)[C@H](C)NC(=O)[C@H](C)NC(=O)[C@H](CN(CCC(F)(F)F)CC(=O)O)NC(=O)[C@H](CC(=O)O)NC1=O)NC(=O)[C@H](CC(C)(C)C)NC(=O)[C@H](CC(=O)O)NC2=O (stereo partly drawn) [I-1640, Ac-PL3-Asp-Npg-B5-Asp-[Tfp]GA-Ala-Ala-Phe-Asn-PyrS2-3Thi-BztA-Gln-NH2] showed an IC50 of 8 nM. For CC(=O)N1CCC[C@]12CC=CCCCC1(CCCC=CCCCOC(=O)N3CC[C@@](C(=O)N[C@@H](Cc4ccsc4)C(=O)N[C@@H](Cc4csc5ccccc45)C(=O)N[C@@H](CCC(N)=O)C(=O)NC4CCCCC4)(C3)NC(=O)[C@H](CC(N)=O)NC(=O)[C@H](Cc3ccccc3)NC(=O)[C@H](C)NC(=O)[C@H](C)NC(=O)[C@H](CN(CC(=O)O)CC(F)(F)F)NC(=O)[C@H](CC(=O)O)NC1=O)NC(=O)[C@H](CC(C)(C)C)NC(=O)[C@H](CC(=O)O)NC2=O (stereo partly drawn) [I-1642, Ac-PL3-Asp-Npg-B5-Asp-TfeGA-Ala-Ala-Phe-Asn-PyrS2-3Thi-BztA-Gln-NHCyHe], the IC50 was 36 nM. CC(=O)N1CCC[C@]12CC=CCCCC1(CCCC=CCCCOC(=O)N3CC[C@@](C(=O)N[C@@H](Cc4ccccc4)C(=O)N[C@@H](Cc4csc5ccccc45)C(=O)N[C@@H](CCCCN)C(N)=O)(C3)NC(=O)[C@H](CC(C)C)NC(=O)[C@H](Cc3ccccc3)NC(=O)[C@H](C)NC(=O)[C@H](CCCCNC(C)C)NC(=O)[C@H](CCC(N)=O)NC(=O)[C@H](CC(=O)O)NC1=O)NC(=O)[C@H](CC(C)(C)C)NC(=O)[C@H](CC(N)=O)NC2=O (stereo partly drawn) [I-1643, Ac-PL3-Asn-Npg-B5-Asp-Gln-iPrLys-Ala-Phe-Leu-PyrS2-Phe-BztA-Lys-NH2] was tested, and the IC50 was 822 nM. For CC(=O)N1CCC[C@]12CC=CCCCC1(CCCC=CCCCOC(=O)N3CC[C@@](C(=O)N[C@@H](Cc4ccccc4)C(=O)N[C@@H](Cc4csc5ccccc45)C(=O)N[C@@H](CCCCNC(C)C)C(N)=O)(C3)NC(=O)[C@H](CC(C)C)NC(=O)[C@H](Cc3ccccc3)NC(=O)[C@H](C)NC(=O)[C@H](CCCCNC(C)C)NC(=O)[C@H](CCC(N)=O)NC(=O)[C@H](CC(=O)O)NC1=O)NC(=O)[C@H](CC(C)(C)C)NC(=O)[C@H](CC(N)=O)NC2=O (stereo partly drawn) [I-1645, Ac-PL3-Asn-Npg-B5-Asp-Gln-iPrLys-Ala-Phe-Leu-PyrS2-Phe-BztA-iPrLys-NH2], the IC50 was 940 nM. Molecule CC(=O)N1CCC[C@]12CC=CCCCC1(CCCC=CCCCOC(=O)N3CC[C@@](C(=O)N[C@@H](Cc4ccccc4)C(=O)N[C@@H](Cc4csc5ccccc45)C(=O)N[C@@H](CCO)C(N)=O)(C3)NC(=O)[C@H](CC(C)C)NC(=O)[C@H](Cc3ccccc3)NC(=O)[C@H](C)NC(=O)[C@H](CCCCNC(C)C)NC(=O)[C@H](CCC(N)=O)NC(=O)[C@H](CC(=O)O)NC1=O)NC(=O)[C@H](CC(C)(C)C)NC(=O)[C@H](CC(N)=O)NC2=O (stereo partly drawn) [I-1646, Ac-PL3-Asn-Npg-B5-Asp-Gln-iPrLys-Ala-Phe-Leu-PyrS2-Phe-BztA-Hse-NH2] has an IC50 of 640 nM. With CC(=O)N1CCC[C@]12CC=CCCCC1(CCCC=CCCCOC(=O)N3CC[C@@](C(=O)N[C@@H](Cc4ccccc4)C(=O)N[C@@H](Cc4csc5ccccc45)C(=O)N[C@@H](CCC(N)=O)C(N)=O)(C3)NC(=O)[C@H](CC(C)C)NC(=O)[C@H](Cc3ccccc3)NC(=O)[C@H](C)NC(=O)[C@H](CCCCNC(C)C)NC(=O)[C@H](CCC(N)=O)NC(=O)[C@H](CC(=O)O)NC1=O)NC(=O)[C@H](Cc1ccc(O)cc1)NC(=O)[C@H](CC(N)=O)NC2=O (stereo partly drawn) [I-1647, Ac-PL3-Asn-Tyr-B5-Asp-Gln-iPrLys-Ala-Phe-Leu-PyrS2-Phe-BztA-Gln-NH2] the IC50 was 2350 nM. CC(=O)N1CCC[C@]12CC=CCCCC1(CCCC=CCCCOC(=O)N3CC[C@@](C(=O)N[C@@H](Cc4ccccc4)C(=O)N[C@@H](Cc4csc5ccccc45)C(=O)N[C@@H](CCC(N)=O)C(N)=O)(C3)NC(=O)[C@H](CC(C)C)NC(=O)[C@H](CC3CCCCC3)NC(=O)[C@H](C)NC(=O)[C@H](CCCCNC(C)C)NC(=O)[C@H](CCC(N)=O)NC(=O)[C@H](CC(=O)O)NC1=O)NC(=O)[C@H](CC(C)(C)C)NC(=O)[C@H](CC(N)=O)NC2=O (stereo partly drawn) [I-1649, Ac-PL3-Asn-Npg-B5-Asp-Gln-iPrLys-Ala-Cha-Leu-PyrS2-Phe-BztA-Gln-NH2] was tested, and the IC50 was 2480 nM. CC(=O)N1CCC[C@]12CC=CCCCC1(CCCC=CCCCOC(=O)N3CC[C@@](C(=O)N[C@@H](Cc4ccccc4)C(=O)N[C@@H](Cc4csc5ccccc45)C(=O)N[C@@H](CCC(N)=O)C(N)=O)(C3)NC(=O)[C@H](CC3CCCCC3)NC(=O)[C@H](Cc3ccccc3)NC(=O)[C@H](C)NC(=O)[C@H](CCCCNC(C)C)NC(=O)[C@H](CCC(N)=O)NC(=O)[C@H](CC(=O)O)NC1=O)NC(=O)[C@H](CC(C)(C)C)NC(=O)[C@H](CC(N)=O)NC2=O (stereo partly drawn) [I-1650, Ac-PL3-Asn-Npg-B5-Asp-Gln-iPrLys-Ala-Phe-Cha-PyrS2-Phe-BztA-Gln-NH2] showed an IC50 of 1680 nM. CC(=O)N1CCC[C@]12CC=CCCCC1(CCCC=CCCCOC(=O)N3CC[C@@](C(=O)N[C@@H](CC4CCCCC4)C(=O)N[C@@H](Cc4csc5ccccc45)C(=O)N[C@@H](CCC(N)=O)C(N)=O)(C3)NC(=O)[C@H](CC(C)C)NC(=O)[C@H](Cc3ccccc3)NC(=O)[C@H](C)NC(=O)[C@H](CCCCNC(C)C)NC(=O)[C@H](CCC(N)=O)NC(=O)[C@H](CC(=O)O)NC1=O)NC(=O)[C@H](CC(C)(C)C)NC(=O)[C@H](CC(N)=O)NC2=O (stereo partly drawn) [I-1651, Ac-PL3-Asn-Npg-B5-Asp-Gln-iPrLys-Ala-Phe-Leu-PyrS2-Cha-BztA-Gln-NH2] was tested, and the IC50 was 3970 nM. CC(=O)N1CCC[C@]12CC=CCCCC1(CCCC=CCCCOC(=O)N3CC[C@@](C(=O)N[C@@H](Cc4ccccc4)C(=O)N[C@@H](Cc4csc5ccccc45)C(=O)N[C@@H](CCC(N)=O)C(N)=O)(C3)NC(=O)[C@H](CCCCNC(C)C)NC(=O)[C@H](Cc3ccccc3)NC(=O)[C@H](C)NC(=O)[C@H](CCCCNC(C)C)NC(=O)[C@H](CCC(N)=O)NC(=O)[C@H](CC(=O)O)NC1=O)NC(=O)[C@H](CC(C)(C)C)NC(=O)[C@H](CC(N)=O)NC2=O (stereo partly drawn) [I-1653, Ac-PL3-Asn-Npg-B5-Asp-Gln-iPrLys-Ala-Phe-iPrLys-PyrS2-Phe-BztA-Gln-NH2] showed an IC50 of 903 nM. Molecule CC(=O)N1CCC[C@]12CC=CCCCC1(CCCC=CCCCOC(=O)N3CC[C@@](C(=O)N[C@@H](Cc4ccccc4)C(=O)N[C@@H](Cc4csc5ccccc45)C(=O)N[C@@H](CCCCNC(C)C)C(N)=O)(C3)NC(=O)[C@H](CCCCNC(C)C)NC(=O)[C@H](Cc3ccccc3)NC(=O)[C@H](C)NC(=O)[C@H](CCCCNC(C)C)NC(=O)[C@H](CCC(N)=O)NC(=O)[C@H](CC(=O)O)NC1=O)NC(=O)[C@H](CC(C)(C)C)NC(=O)[C@H](CC(N)=O)NC2=O (stereo partly drawn) [I-1654, Ac-PL3-Asn-Npg-B5-Asp-Gln-iPrLys-Ala-Phe-iPrLys-PyrS2-Phe-BztA-iPrLys-NH2] has an IC50 of 2130 nM. In the case of CC(=O)N1CCC[C@]12CC=CCCCC1(CCCC=CCCCOC(=O)N3CC[C@@](C(=O)N[C@@H](Cc4ccccc4Cl)C(=O)N[C@@H](Cc4csc5ccccc45)C(=O)N[C@@H](CCC(N)=O)C(=O)N[C@@H](C)CO)(C3)NC(=O)[C@H](CC(C)C)NC(=O)[C@H](Cc3ccccc3)NC(=O)[C@H](C)NC(=O)[C@H](C)NC(=O)[C@H](Cc3cccc(C(=O)O)c3)NC(=O)[C@H](CC(=O)O)NC1=O)NC(=O)[C@H](CC(C)(C)C)NC(=O)[C@H](CC(=O)O)NC2=O (stereo partly drawn) [I-1673, Ac-PL3-Asp-Npg-B5-Asp-3COOHF-Ala-Ala-Phe-Leu-PyrS2-2C1F-BztA-Gln-Alao1], the IC50 is reported as 28 nM. With CC(=O)N1CCC[C@]12CC=CCCCC1(CCCC=CCCCOC(=O)N3CC[C@@](C(=O)N[C@@H](Cc4ccccc4Cl)C(=O)N[C@@H](Cc4csc5ccccc45)C(=O)N[C@@H](CCC(N)=O)C(=O)N[C@H](CO)CC(C)C)(C3)NC(=O)[C@H](CC(C)C)NC(=O)[C@H](Cc3ccccc3)NC(=O)[C@H](C)NC(=O)[C@H](C)NC(=O)[C@H](Cc3cccc(C(=O)O)c3)NC(=O)[C@H](CC(=O)O)NC1=O)NC(=O)[C@H](CC(C)(C)C)NC(=O)[C@H](CC(=O)O)NC2=O (stereo partly drawn) [I-1676, Ac-PL3-Asp-Npg-B5-Asp-3COOHF-Ala-Ala-Phe-Leu-PyrS2-2C1F-BztA-Gln-Leuo1] the IC50 was 91 nM.
